The target in one test is T1, human NaV1.3 (Homo sapiens, UniProt Q9NY46).
T1 construct: expressed in transfected cells; host or cells: HEK293
The test can be described thus: FRET assay (EFS, FDSS) on HEK293 cells expressing human NaV1.3 channels. The class given is cell-based. The settings on record: for pIC50: FRET assay, HEK293 cells expressing human NaV1.3, read-out: IC50 against Nav1.3. In outline:
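Membrane potential in HEK293 cells stably expressing human NaV1.3, read by FRET (CC2-DMPE 10 µM / DiSBAC2(3) 15 µM with 0.555 mM VABSC-1) after electrical field stimulation, in HEPES-buffered saline pH 7.4. Compounds added after dye loading at room temperature. IC50 from normalized 440 nm fluorescence ratios.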

For another test, the target named is T2, human Nav1.7 (Homo sapiens, UniProt Q15858).
T2 construct: expressed in transfected cells; host or cells: CHO
T2 sequence (Q15858 whole entry): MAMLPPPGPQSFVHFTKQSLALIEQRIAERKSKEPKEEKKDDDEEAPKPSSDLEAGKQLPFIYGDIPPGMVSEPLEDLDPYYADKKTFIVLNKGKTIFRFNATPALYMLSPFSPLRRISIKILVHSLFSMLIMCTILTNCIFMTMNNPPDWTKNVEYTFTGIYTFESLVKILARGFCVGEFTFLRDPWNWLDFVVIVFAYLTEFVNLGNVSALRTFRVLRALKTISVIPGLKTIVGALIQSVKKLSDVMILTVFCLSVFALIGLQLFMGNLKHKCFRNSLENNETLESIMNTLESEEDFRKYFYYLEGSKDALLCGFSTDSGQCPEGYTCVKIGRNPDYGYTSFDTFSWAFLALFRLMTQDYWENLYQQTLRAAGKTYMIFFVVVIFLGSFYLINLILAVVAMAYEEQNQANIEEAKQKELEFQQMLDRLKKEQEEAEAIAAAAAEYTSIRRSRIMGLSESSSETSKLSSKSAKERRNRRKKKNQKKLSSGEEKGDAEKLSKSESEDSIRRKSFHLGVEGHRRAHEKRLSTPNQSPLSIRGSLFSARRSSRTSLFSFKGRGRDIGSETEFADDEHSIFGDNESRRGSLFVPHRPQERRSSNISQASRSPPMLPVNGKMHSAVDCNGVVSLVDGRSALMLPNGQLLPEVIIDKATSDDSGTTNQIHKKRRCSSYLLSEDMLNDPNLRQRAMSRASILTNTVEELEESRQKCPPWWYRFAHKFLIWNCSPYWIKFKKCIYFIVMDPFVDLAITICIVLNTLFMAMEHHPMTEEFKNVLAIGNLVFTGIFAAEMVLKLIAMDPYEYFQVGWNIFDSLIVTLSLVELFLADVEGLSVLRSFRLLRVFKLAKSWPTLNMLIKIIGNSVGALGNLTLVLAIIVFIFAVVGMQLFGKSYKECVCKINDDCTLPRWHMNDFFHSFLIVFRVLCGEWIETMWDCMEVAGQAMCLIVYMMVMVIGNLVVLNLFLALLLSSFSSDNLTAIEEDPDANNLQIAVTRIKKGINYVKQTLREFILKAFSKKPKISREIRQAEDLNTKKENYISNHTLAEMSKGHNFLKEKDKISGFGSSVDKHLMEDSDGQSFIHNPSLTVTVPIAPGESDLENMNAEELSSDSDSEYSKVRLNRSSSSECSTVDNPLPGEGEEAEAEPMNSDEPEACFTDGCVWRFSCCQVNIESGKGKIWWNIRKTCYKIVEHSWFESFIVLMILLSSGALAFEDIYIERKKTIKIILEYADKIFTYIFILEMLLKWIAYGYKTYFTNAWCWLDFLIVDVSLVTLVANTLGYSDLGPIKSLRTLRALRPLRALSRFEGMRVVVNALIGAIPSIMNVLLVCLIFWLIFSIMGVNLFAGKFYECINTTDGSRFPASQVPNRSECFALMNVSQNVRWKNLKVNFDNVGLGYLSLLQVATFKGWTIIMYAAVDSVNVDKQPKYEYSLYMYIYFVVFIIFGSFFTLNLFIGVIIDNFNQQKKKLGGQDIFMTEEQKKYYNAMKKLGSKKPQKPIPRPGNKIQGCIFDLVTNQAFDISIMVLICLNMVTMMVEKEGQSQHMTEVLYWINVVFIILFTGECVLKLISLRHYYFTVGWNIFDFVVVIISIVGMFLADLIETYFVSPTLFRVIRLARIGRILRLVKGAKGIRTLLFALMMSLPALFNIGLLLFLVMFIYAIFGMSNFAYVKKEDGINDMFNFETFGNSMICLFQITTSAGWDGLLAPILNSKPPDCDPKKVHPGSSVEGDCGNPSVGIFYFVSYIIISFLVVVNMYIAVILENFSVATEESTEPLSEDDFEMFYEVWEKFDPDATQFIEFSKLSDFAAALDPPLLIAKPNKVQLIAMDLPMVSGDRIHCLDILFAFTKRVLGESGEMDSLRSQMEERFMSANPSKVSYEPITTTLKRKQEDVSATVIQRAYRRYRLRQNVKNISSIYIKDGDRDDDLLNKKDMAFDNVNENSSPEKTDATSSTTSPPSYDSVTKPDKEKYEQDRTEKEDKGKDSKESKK
The test can be described thus: FRET assay (EFS, FDSS) on CHO cells expressing human NaV1.7 channels. Conditions: for pIC50: FRET assay, CHO cells expressing human NaV1.7, read-out: IC50 against Nav1.7. The class given is cell-based. Here is the method:
This screen was used to determine the effects of compounds on human NaV1.3, human Nav1.7, and human Nav1.5 channels, utilising electrical field stimulation (EFS) system in 96-well plate format on FDSS (Hamamatsu Photonics) platform. The change of membrane potential was monitored with FRET dye pair, oxonol (DiSBAC2(3)) and coumarin (CC2-DMPE).
CHO cells expressing human NaV1.7 channels were grown in T225 flasks, in a 5% CO2 humidified incubator to about 80% confluence. Media composition consisted of HAM/F12 with Glutamax I, 10% FCS, 100 units/ml Penicillin and 100 microgram/ml Hygromycin.
Protocol: • Seeded each cell lines (1×10^5 cells/well) into poly-D-lysine coated 96-well plates prior to experimentation. • Incubated at 37° C. in 5% CO2 for 24 hours. • Washed each well with assay buffer (140 mM NaCl, 4.5 mM KCl, 10 mM D-Glucose, 2 mM CaCl2, 1 mM MgCl2, 10 mM HEPES, pH 7.4 adjusted with NaOH) twice. • Added 1st loading solution containing 10 microM CC2-DMPE and 0.06% Pluronic F-127 in assay buffer. • Incubated the plate at room temperature in dark for 1 hour. • Removed 1st loading solution and added 2nd loading solution containing 15 microM DiSBAC2(3), 0.555 mM VABSC-1 and 0.004% Pluronic F-127 in assay buffer. • Placed the plate under the dark at room temperature for 25 minutes. • Added compound solutions into the assay plate. • Set the assay plate in FDSS and placed an EFS device on the plate. • Measured EFS-induced fluorescent response by FDSS.
The data were analyzed and reported as normalized ratios of intensities measured at […]. The process of calculating these ratios was performed as follows:
[formula] This analysis was performed using a computerized specific program designed for FDSS generated data. Fluorescence ratio values were plotted using XLfit to determine an IC50 value for each compound.

The mark [1] stands for this setting: comparison compound of WO 2008147864.

pIC50: −log10 of the molar value.

T1 sequence (Q9NY46 whole entry): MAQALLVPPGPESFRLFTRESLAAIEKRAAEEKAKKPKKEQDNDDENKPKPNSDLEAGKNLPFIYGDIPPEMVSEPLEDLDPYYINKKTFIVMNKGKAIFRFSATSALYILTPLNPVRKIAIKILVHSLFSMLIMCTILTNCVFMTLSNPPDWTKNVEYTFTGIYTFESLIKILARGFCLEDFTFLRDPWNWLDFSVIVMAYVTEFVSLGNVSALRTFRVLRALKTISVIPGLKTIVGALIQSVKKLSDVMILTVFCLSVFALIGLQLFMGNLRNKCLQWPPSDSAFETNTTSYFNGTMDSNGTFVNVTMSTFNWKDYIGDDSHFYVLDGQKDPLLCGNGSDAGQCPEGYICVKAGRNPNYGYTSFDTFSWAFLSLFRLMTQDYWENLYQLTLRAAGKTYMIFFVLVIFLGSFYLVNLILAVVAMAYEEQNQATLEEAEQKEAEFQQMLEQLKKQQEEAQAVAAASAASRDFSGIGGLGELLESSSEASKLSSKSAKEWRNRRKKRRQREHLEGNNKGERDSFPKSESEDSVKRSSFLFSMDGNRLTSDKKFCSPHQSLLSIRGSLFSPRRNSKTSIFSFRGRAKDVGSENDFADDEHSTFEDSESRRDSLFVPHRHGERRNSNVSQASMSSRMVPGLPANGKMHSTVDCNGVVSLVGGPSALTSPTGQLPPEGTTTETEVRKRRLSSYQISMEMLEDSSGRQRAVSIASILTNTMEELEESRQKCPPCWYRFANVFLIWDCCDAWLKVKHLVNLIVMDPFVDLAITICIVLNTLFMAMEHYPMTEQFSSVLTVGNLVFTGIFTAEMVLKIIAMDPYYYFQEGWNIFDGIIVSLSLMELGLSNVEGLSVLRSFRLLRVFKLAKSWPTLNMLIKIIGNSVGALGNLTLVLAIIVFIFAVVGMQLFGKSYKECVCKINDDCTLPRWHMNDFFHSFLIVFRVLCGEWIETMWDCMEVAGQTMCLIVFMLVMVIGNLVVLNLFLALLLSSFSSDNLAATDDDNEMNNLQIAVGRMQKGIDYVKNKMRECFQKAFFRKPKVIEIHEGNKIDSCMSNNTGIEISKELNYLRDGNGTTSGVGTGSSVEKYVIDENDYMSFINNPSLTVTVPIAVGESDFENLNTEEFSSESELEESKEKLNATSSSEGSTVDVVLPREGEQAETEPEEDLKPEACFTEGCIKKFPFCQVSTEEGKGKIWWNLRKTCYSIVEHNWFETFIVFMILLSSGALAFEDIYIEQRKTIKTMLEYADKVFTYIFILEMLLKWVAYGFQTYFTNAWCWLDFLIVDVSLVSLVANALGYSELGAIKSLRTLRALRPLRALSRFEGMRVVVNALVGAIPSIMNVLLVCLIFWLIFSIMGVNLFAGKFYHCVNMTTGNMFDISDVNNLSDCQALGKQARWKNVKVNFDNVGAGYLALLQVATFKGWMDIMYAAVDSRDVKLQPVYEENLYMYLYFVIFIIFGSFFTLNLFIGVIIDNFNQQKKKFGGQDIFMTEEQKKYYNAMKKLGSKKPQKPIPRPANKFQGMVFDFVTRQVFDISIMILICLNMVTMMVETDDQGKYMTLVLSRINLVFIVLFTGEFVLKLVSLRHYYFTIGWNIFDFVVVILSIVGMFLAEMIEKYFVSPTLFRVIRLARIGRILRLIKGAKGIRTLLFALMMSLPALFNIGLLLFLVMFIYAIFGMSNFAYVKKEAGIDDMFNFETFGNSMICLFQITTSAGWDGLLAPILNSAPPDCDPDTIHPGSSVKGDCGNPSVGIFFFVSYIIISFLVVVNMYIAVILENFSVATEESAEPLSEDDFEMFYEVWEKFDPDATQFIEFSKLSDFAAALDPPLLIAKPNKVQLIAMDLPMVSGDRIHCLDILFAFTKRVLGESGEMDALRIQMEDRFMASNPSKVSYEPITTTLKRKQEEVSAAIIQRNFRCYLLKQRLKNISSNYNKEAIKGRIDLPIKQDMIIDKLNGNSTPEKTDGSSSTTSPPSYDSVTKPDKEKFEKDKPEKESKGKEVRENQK

In the case of `O=C(c1ccc2c(=O)n(CCc3ccccc3)c(=O)[nH]c2c1)N1CCN(c2ncccn2)CC1` [3-(2-phenylethyl)-7-[(4-pyrimidin-2-ylpiperazin-1-yl)carbonyl]quinazoline-2,4(1H,3H)-dione], at human NaV1.3 (setting [1]), the “activity against NaV1.3” value is listed as “no activity”. For the same molecule, on human Nav1.7 (setting [1]), the “activity against NaV1.7” value was “no activity”. For `CC(C)COc1cc(N2CCN(C(=O)c3cccc(OC(F)(F)F)c3)CC2)ncn1` [Example 15, (4-(6-isobutoxypyrimidin-4-yl)piperazin-1-yl)(3-(trifluoromethoxy)phenyl)methanone], the pIC50 at human NaV1.3 and at human Nav1.7 was over 5.52 each time.

For the molecule `CC(C)COc1cc(N2CCN(C(=O)c3nn(C)c4ccccc34)CC2)ncn1` [Example 22, (4-(6-isobutoxypyrimidin-4-yl)piperazin-1-yl)(1-methyl-1H-indazol-3-yl)methanone], the pIC50 on human NaV1.3 and at human Nav1.7 was over 5.52 throughout.

With `CC(C)COc1cc(N2CCN(C(=O)COc3ccc(F)cc3)CC2)ncn1` [Example 24, 2-(4-fluorophenoxy)-1-(4-(6-isobutoxypyrimidin-4-yl)piperazin-1-yl)ethanone], the pIC50 on human NaV1.3 and on human Nav1.7 was over 5.52 each time.

In the case of `CC(C)COc1cc(N2CCN(C(=O)CCn3ccc4ccccc43)CC2)ncn1` [Example 59, 3-(1H-indol-1-yl)-1-(4-(6-isobutoxypyrimidin-4-yl)piperazin-1-yl)propan-1-one], the pIC50 on human NaV1.3 and on human Nav1.7 was over 5.52 in each case.

Regarding `COc1cccc(OCC(=O)N2CCN(c3cc(OCC(C)C)ncn3)CC2)c1` [Example 70, 1-(4-(6-isobutoxypyrimidin-4-yl)piperazin-1-yl)-2-(3-methoxyphenoxy)ethanone], the pIC50 on human NaV1.3 and at human Nav1.7 was over 5.52 each time. For `CC(C)COc1cc(N2CCN(C(=O)CNC(=O)c3ccc(OCC(F)(F)F)nc3)CC2)ncn1` [Example 74, N-(2-(4-(6-isobutoxypyrimidin-4-yl)piperazin-1-yl)-2-oxoethyl)-6-(2,2,2-trifluoroethoxy)nicotinamide], the pIC50 on human NaV1.3 and on human Nav1.7 was over 5.52 throughout.

With `CC(C)COc1cc(N2CCN(C(=O)COc3cccc4cccnc34)CC2)ncn1` [Example 77, 1-(4-(6-isobutoxypyrimidin-4-yl)piperazin-1-yl)-2-(quinolin-8-yloxy)ethanone], the pIC50 at human NaV1.3 and at human Nav1.7 was over 5.52 each time. With `CC(C)COc1cc(N2CCN(C(=O)c3cc4ccccc4s3)CC2)ncn1` [Example 86], the pIC50 at human NaV1.3 and at human Nav1.7 was over 5.52 throughout. Consider `O=C(c1csc(-c2ccccc2)n1)N1CCN(c2cc(OCC(F)(F)F)ncn2)CC1` [Example 166, (2-phenylthiazol-4-yl)(4-(6-(2,2,2-trifluoroethoxy)pyrimidin-4-yl)piperazin-1-yl)methanone], for which, on human Nav1.7, the pIC50 is over 5.52.

As for `COc1ccccc1-c1cc(C(=O)N2CCN(c3cc(OCC(C)C)ncn3)CC2)[nH]n1` [Example 175], the pIC50 on human Nav1.7 was over 5.52.

As to `CC(C)COc1cc(N2CCN(C(=O)Cn3ccc4ccccc4c3=O)CC2)ncn1` [Example 236, 2-(2-(4-(6-isobutoxypyrimidin-4-yl)piperazin-1-yl)-2-oxoethyl)isoquinolin-1(2H)-one], at human Nav1.7, the pIC50 was over 5.52.

With `O=C(c1cncn1-c1ccccc1C(F)(F)F)N1CCN(c2cc(OCC(F)(F)F)ncn2)CC1` [Example 243, (4-(6-(2,2,2-trifluoroethoxy)pyrimidin-4-yl)piperazin-1-yl)(1-(2-(trifluoromethyl)phenyl)-1H-imidazol-5-yl)methanone], the pIC50 at human Nav1.7 was over 5.52.

As to `Cc1onc(-c2ccccc2)c1C(=O)N1CCN(c2cc(OCC(F)(F)F)ncn2)CC1` [Example 245, (5-methyl-3-phenylisoxazol-4-yl)(4-(6-(2,2,2-trifluoroethoxy)pyrimidin-4-yl)piperazin-1-yl)methanone], the negative logarithm of the IC50 (pIC50) on human Nav1.7 was over 5.52.

Broadly, the pIC50 is the IC50 on a negative log10 scale, so that one unit is a factor of ten.

The values above are taken from patent US8999974B2, “Acyl piperazine derivatives as TTX-S blockers” (Raqualia Pharma Inc., priority 2010, dated 2015).
